Tests used:
b-Raf [1] = target: T1, b-Raf (Homo sapiens, UniProt P15056); test: Raf biochemical assay (in vitro kinase assay, 32-P transfer from ATP to Mek1); settings: full-length wild type b-Raf, Mek1 substrate; for inhibition at 1 µM: @ 1 μM compound, read-out: b-Raf % inhib @ 1 μM; for Ki: 25 μM ATP
T1 construct: Full-length wild type b-Raf is expressed in recombinant form and purified from bacterial or insect cells; made in house; host or cells: bacterial or insect cells
Procedure: Compounds of the present invention were evaluated for potency against b-Raf using an in vitro kinase assay. Raf kinase activity is measured in vitro by determining transfer of radiolabeled 32-P phosphate from ATP to the specific Raf substrate Mek1. Full-length wild type b-Raf is expressed in recombinant form and purified from bacterial or insect cells. Recombinant Mek1 is purified from E. coli bacterial cells. In one assay format (designated G1), the full-length wild type Mek1 is used as the b-Raf substrate. In a second assay format (designated G2), the full-length K97R Mek1 mutant is used as the b-Raf substrate.
In vitro kinase assays are performed in solution containing the following; 50 mM Hepes (pH 7.4), 5 nM b-Raf, 0.8 μM Mek1, 10 mM MgCl2, 25 μM ATP, 0.002% (v/v) Tween-20, 5 μg/mL leupeptin, 1.2 mM DTT, 2% (v/v) DMSO, 0.2-1.0 μCi [γ-^32P]ATP per well.
The assays are performed in wells of a 96 well polypropylene round bottom plate, each well containing 43.5 μL assay mix and 1.5 μL inhibitor compound or DMSO vehicle. 15 μL of b-Raf mix is added and the plate is shaken on a plate shaker and preincubated for 10 minutes at ambient temperature. The reaction is started by addition of 15 μL ATP mix and shaking. The reaction is terminated after 40 minutes by addition of 25 μL 0.5 M EDTA (pH 7.4).
60 μL of the stopped reaction is transferred to a well of a 96-well nylon 66 Biodyne A membrane Silent Screen filter plate (Nalge/Nunc: 256081). The wells are filtered and washed five times with 0.85% phosphoric acid. The filter is placed in a tray with about 50 mL 0.85% phosphoric acid and gently rotated for 10 minutes on an orbital shaker. The procedure is repeated once with fresh 0.85% phosphoric acid. Five samples of 0.5 μL of ATP mix are also spotted onto filter paper for calculation of specific activity. The filters are air dried for one hour and sandwiched between cellophane wrap on an Amersham Biosciences Storage Phosphor Screen and developed at least over night. The image is read using a Molecular Dynamics Storm 840 phosphoimager. Volumes of spots are calculated using ImageQuant5.1.
Raf kinase activity is calculated from the specific activity of [32-P] ATP, 32-P incorporation into Mek1, and the concentration of b-Raf.

b-Raf [2] = target: T2, b-Raf (Homo sapiens, UniProt P15056, V600E); test: Raf cellular assay (phospho-Mek1/2 ELISA in A2058 cells); format: cell-based; settings: Table 2; human melanoma A2058 cells (b-Raf mutation), Mek1/2 Ser217/221 phosphorylation, 1 hour incubation; read-out: pMEK IC50
T2 construct: endogenous in cells; host or cells: A2058 human melanoma cells
T2 sequence (P15056 whole entry V600E): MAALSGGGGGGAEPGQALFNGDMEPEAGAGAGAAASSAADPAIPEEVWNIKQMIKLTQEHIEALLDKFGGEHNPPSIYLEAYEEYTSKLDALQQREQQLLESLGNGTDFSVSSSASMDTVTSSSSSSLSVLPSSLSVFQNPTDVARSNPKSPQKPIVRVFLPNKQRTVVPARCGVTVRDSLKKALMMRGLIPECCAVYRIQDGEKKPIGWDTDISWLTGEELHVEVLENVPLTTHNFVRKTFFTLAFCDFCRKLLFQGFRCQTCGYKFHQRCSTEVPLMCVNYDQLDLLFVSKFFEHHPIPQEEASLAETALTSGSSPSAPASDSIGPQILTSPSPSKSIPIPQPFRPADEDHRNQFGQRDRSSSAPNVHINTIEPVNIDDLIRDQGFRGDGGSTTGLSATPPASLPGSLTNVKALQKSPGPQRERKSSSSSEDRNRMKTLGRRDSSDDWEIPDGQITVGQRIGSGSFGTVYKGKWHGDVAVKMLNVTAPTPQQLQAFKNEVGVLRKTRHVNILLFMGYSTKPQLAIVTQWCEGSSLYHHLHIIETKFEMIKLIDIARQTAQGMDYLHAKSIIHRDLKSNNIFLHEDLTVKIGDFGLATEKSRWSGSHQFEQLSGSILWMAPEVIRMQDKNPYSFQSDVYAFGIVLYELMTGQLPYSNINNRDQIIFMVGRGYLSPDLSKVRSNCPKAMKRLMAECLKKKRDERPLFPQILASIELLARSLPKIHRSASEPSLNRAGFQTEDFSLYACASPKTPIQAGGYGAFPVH
In short: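 A2058 melanoma cells (B-Raf mutant), seeded overnight in 10% FBS DMEM, were exposed to compounds (11-point 1:3 series, duplicate) for 1 h at 37 °C. Lysates were captured on anti-Mek1-coated plates and Mek1/2 Ser217/221 phosphorylation was read by anti-phospho-Mek1/2 ELISA, HRP/TMB, 450 nm.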

T1 sequence (P15056 whole entry): as the sequence (P15056 whole entry V600E) above, with E600V counted along it

inhibition at 1 µM (b-Raf [1]) [%] | Ki (b-Raf [1]) [nM] | IC50 (b-Raf [2]) [nM] | SMILES
100 | 0.7 | 2990 | COCCNc1nccc(-c2cn(C(C)C)nc2-c2cnc3[nH]ccc3c2)n1 [Example D-13, 4-[1-isopropyl-3-(1H-pyrrolo[2,3-b]pyridin-5-yl)-1H-pyrazol-4-yl]-N-(2-methoxyethyl)-pyrimidin-2-amine]
100 | < 0.1 | 149 | CC(C)n1cc(-c2ccnc(NCCn3cccn3)n2)c(-c2cnc3[nH]ccc3c2)n1 [Example D-4, 4-[1-isopropyl-3-(1H-pyrrolo[2,3-b]pyridin-5-yl)-1H-pyrazol-4-yl]-N-[2-(1H-pyrazol-1-yl)ethyl]pyrimidin-2-amine]
98 | 11 | 815 | Cc1cc(-c2nn(C(C)C)cc2-c2ccnc(NC[C@H](C)O)n2)cnc1N [Example B-3, (2S)-1-(4-(3-(6-amino-5-methylpyridin-3-yl)-1-isopropyl-1H-pyrazol-4-yl)pyrimidin-2-ylamino)propan-2-ol]
93 | 8.3 | 1810 | CC(C)n1cc(-c2ccnc(NCc3ccccn3)n2)c(-c2cnc3[nH]ccc3c2)n1 [Example D-3, 4-(1-isopropyl-3-(1H-pyrrolo[2,3-b]pyridin-5-yl)-1H-pyrazol-4-yl)-N-(pyridin-2-ylmethyl)pyrimidin-2-amine]
– | 1.5 | 44 | Cc1[nH]c2ncc(-c3nn(C(C)C)cc3-c3ccnc(NC[C@H](C)O)n3)cc2c1C [Example B-6, (2S)-1-(4-(3-(2,3-dimethyl-1H-pyrrolo[2,3-b]pyridin-5-yl)-1-isopropyl-1H-pyrazol-4-yl)pyrimidin-2-ylamino)propan-2-ol]
97 | 12 | 8670 | CNc1ccc(-c2nn(C(C)C)cc2-c2ccnc(NC[C@H](C)O)n2)cn1 [Example B-2, (2S)-1-(4-(1-isopropyl-3-(6-(methylamino)pyridin-3-yl)-1H-pyrazol-4-yl)pyrimidin-2-ylamino)propan-2-ol]
– | 0.6 | 165 | Cc1[nH]c2ncc(-c3nn(C(C)C)cc3-c3ccnc(NC[C@H](C)O)n3)cc2c1Cl [Example E-3, (2S)-1-(4-(3-(3-chloro-2-methyl-1H-pyrrolo[2,3-b]pyridin-5-yl)-1-isopropyl-1H-pyrazol-4-yl)pyrimidin-2-ylamino)propan-2-ol]
– | 2 | 9260 | Cc1nc2ncc(-c3nn(C(C)C)cc3-c3ccnc(NC[C@H](C)O)n3)cn2c1C [Example B-9, (2S)-1-(4-(3-(2,3-dimethylimidazo[1,2-a]pyrimidin-6-yl)-1-isopropyl-1H-pyrazol-4-yl)pyrimidin-2-ylamino)propan-2-ol]
100 | 0.8 | 1320 | Cc1nc(CNc2nccc(-c3cn(C(C)C)nc3-c3cnc4[nH]ccc4c3)n2)c(C)o1 [Example D-11, N-[(2,5-dimethyl-1,3-oxazol-4-yl)methyl]-4-[1-isopropyl-3-(1H-pyrrolo[2,3-b]pyridin-5-yl)-1H-pyrazol-4-yl]pyrimidin-2-amine]
100 | 0.7 | 542 | CC(C)n1cc(-c2ccnc(NCCn3ccccc3=O)n2)c(-c2cnc3[nH]ccc3c2)n1 [Example D-8, 1-[2-({4-[1-isopropyl-3-(1H-pyrrolo[2,3-b]pyridin-5-yl)-1H-pyrazol-4-yl]pyrimidin-2-yl}amino)ethyl]pyridin-2(1H)-one]
100 | 2 | 923 | CCn1cc(CNc2nccc(-c3cn(C(C)C)nc3-c3cnc4[nH]ccc4c3)n2)cn1 [Example D-10, N-[(1-ethyl-1H-pyrazol-4-yl)methyl]-4-[1-isopropyl-3-(1H-pyrrolo[2,3-b]pyridin-5-yl)-1H-pyrazol-4-yl]pyrimidin-2-amine]
74 | 272 | 3370 | CNc1ncc(-c2nn(C(C)C)cc2-c2ccnc(NC[C@H](C)O)n2)cc1C [Example B-4, (2S)-1-(4-(1-isopropyl-3-(5-methyl-6-(methylamino)pyridin-3-yl)-1H-pyrazol-4-yl)pyrimidin-2-ylamino)propan-2-ol]

Source: patent publication US7772246B2 (Pfizer Inc., priority 2007, dated 2010)
